Legend:
Assay type in all cases: binding
[1] = target: T1, Vasa (Bombyx mori, UniProt O01378); assay: NMR CSP titration, fast exchange
T1 construct: gene BmVLG
T1 sequence (O01378 135-400): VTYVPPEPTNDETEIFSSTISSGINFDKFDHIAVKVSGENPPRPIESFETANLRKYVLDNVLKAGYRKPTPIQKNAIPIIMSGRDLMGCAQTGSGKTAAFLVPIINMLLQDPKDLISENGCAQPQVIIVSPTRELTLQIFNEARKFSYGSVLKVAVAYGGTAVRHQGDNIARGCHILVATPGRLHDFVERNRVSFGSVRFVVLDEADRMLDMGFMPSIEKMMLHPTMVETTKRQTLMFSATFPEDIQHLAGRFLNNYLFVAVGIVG

[2] = target: T2, Vasa (Bombyx mori, UniProt O01378); assay: NMR methyl CSP titration, fast exchange (not saturated; KD inaccurate)
T2 construct: gene BmVLG
T2 sequence (O01378 135-564): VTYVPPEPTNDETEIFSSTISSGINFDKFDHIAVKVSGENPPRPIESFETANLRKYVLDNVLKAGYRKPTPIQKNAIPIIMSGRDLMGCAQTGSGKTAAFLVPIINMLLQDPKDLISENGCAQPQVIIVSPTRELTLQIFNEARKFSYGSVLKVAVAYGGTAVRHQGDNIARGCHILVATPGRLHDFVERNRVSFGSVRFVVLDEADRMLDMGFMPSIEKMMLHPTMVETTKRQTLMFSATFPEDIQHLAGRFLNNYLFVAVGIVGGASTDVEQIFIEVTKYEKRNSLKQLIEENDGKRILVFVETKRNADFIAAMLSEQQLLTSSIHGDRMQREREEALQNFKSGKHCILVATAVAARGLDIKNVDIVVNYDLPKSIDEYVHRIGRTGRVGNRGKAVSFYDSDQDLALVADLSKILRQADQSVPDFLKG

[3] = target: T2, Vasa; assay: NMR titration, 1H-13C methyl-HMQC, slow exchange

## Nc1ncnc2c1ncn2[C@@H]1O[C@H](COP(=O)(O)OP(=O)(O)OP(=O)(O)O)[C@@H](O)[C@H]1O [ATP]
[1]
  Kd: 1600 ± 600 µM

## Nc1ncnc2c1ncn2[C@@H]1O[C@H](CO[P@](=O)(O)O[P@](=O)(O)O[P@@](=O)(O)S)[C@@H](O)[C@H]1O [ATPγS, adenosine 5′-γ-thiotriphosphate]
[2]
  Kd: ~18800 µM

## Nc1ncnc2c1ncn2[C@@H]1O[C@H](COP(=O)(O)OP(=O)(O)O)[C@@H](O)[C@H]1O [ADP]
[3]
  Kd: 53 ± 15 µM
